From ChEMBL document CHEMBL1145618, “Discovery of trypanocidal thiosemicarbazone inhibitors of rhodesain and TbcatB” (Bioorg Med Chem Lett, 2008)

Columns and labels:
[1] = Therapeutic index, ratio of EC50 for human Raji cells to EC50 for Trypanosoma brucei; format: cell-based; conditions: Raji cells (versus Trypanosoma brucei), read-out: Ratio EC50
Procathepsin L = Procathepsin L (Homo sapiens, UniProt P07711); test: Inhibition of human cathepsin L
Trypanosoma brucei = test: Antitrypanosomal activity against Trypanosoma brucei; format: functional, organism-based
Cathepsin B = Cathepsin B (Homo sapiens, UniProt P07858); test: Inhibition of human cathepsin B
[2] = Inhibition of Trypanosoma brucei cathepsin B
[3] = Inhibition of Trypanosoma brucei rhodesain

Sequence of Procathepsin L (P07711 whole entry): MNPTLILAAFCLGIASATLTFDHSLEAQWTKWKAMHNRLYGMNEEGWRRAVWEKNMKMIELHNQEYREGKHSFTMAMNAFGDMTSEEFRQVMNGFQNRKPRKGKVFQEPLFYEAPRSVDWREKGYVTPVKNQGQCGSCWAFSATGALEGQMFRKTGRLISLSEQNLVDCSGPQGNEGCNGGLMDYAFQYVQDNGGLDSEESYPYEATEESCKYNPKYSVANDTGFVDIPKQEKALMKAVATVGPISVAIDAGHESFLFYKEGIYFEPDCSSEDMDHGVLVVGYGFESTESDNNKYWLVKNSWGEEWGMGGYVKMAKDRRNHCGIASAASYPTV

| SMILES | selectivity ratio [1] | IC50 (Procathepsin L) | EC50 (Trypanosoma brucei) | IC50 (Cathepsin B) | IC50 [2] | IC50 [3] |
| --- | --- | --- | --- | --- | --- | --- |
| NC(=S)N/N=C(/CCc1ccccc1)c1cccc(Cl)c1 | > 6.7 | 21 nM | 3700 nM | 6 µM | > 25 µM | 42 nM |
| NC(=S)N/N=C(/c1cc(Cl)cc(Cl)c1)c1cccs1 | > 4 | 3.6 nM | 7000 nM | 0.3 µM | 0.45 µM | 11 nM |
| NC(=S)N/N=C(/c1cc(C(F)(F)F)cc(C(F)(F)F)c1)c1cccs1 | > 4 | 10.1 nM | 7000 nM | 0.3 µM | 0.15 µM | 7 nM |
| NC(=S)N/N=C(/CCc1ccccc1)c1cccc(F)c1 | > 4 | 118 nM | 6000 nM | 22 µM | > 25 µM | 390 nM |
| Cc1ccc(/C(=N/NC(N)=S)c2cccc(F)c2)cc1 |  | 44 nM | > 10000 nM | 4.5 µM | > 25 µM | 89 nM |
| Cc1ccc(/C(=N\NC(N)=S)c2cc(Cl)cc(Cl)c2)cc1 | > 9 | 11 nM | 1100 nM | 1.8 µM | 6 µM | 46 nM |
| Cc1ccc(/C(=N/NC(N)=S)c2ccccc2)cc1 |  | 1020 nM | > 10000 nM | 13 µM | > 25 µM | 500 nM |
| NC(=S)N/N=C(/C=C/c1ccccc1)c1cccc(C(F)(F)F)c1 | > 10 | 81 nM | 2500 nM | 1.7 µM | 7 µM | 29 nM |
| NC(=S)N/N=C(\CCc1ccccc1)c1cc(Cl)cc(Cl)c1 | > 19 | 39 nM | 1300 nM | 4.9 µM | > 25 µM | 57 nM |
| Cc1ccc(/C(=N/NC(N)=S)c2cccc(C(F)(F)F)c2)cc1 | > 17 | 9.4 nM | 1500 nM | 0.21 µM | 0.21 µM | 8 nM |
| NC(=S)N/N=C(\CCc1ccccc1)c1cc(C(F)(F)F)cc(C(F)(F)F)c1 | > 10 | 17 nM | 2000 nM | 3 µM | > 25 µM | 53 nM |
| NC(=S)N/N=C(/CCc1ccccc1)c1ccccc1 |  | 910 nM | > 10000 nM | > 25 µM | > 25 µM | 1500 nM |
| Cc1ccc(/C(=N\NC(N)=S)c2cc(C(F)(F)F)cc(C(F)(F)F)c2)cc1 [THIOSEMICARBAZONE STANDARD] | > 19 | 7.4 nM | 1300 nM | 3.3 µM | 15 µM | 44 nM |
